The half-life is the time in which the quantity being followed falls by half.

We go through one substance from US11571389B2, “Delivery devices and methods for making the same” (THE REGENTS OF THE UNIVERSITY OF MICHIGAN, priority 2016, dated 2023).

In data set [1] the test system is procollagen I N-terminal propeptide (P1NP). The data set is described as follows: Serum P1NP ELISA three weeks after implantation, Example 2. Type of data set: in vivo, C57BL/6 mice. On the procedure: (§1) Three weeks after implantation, the mice were anaesthetized with inhalation of isoflurane (2%) and blood was collected by tail blood draw. After centrifuge for 10 minutes at 13000 rpm, serum was separated and kept frozen until biochemical assays were performed. Serum procollagen I N-terminal propeptide (P1NP) (MyBioSource, Inc) and TRAP5b (Novatein Biosciences, Mass.) ELISA immunoassays were performed following the manufacturer's protocols. The ELISA analyses were employed to evaluate the levels of bone biomarkers.

The next data set deals with TRAP5b. The data set is described as follows: Serum TRAP5b ELISA three weeks after implantation, Example 2. Type of data set: in vivo, C57BL/6 mice. On the procedure:
as §1
(ELISA stands for enzyme-linked immunosorbent assay.)

A further data set concerns mouse tibiae. The data set is described as follows: Tibiae μCT to assess systemic side effects of local PTH release, Example 2. Type of data set: in vivo, C57BL/6 mice. Conditions: compared to the BSA control group. On the procedure: (§2) To determine the optimal PTH release mode to ensure desired PTH anabolic action in bone regeneration, the pulsatile PTH delivery device and the continuous PTH delivery device were compared in identical experimental set ups to access the outcomes of bone regeneration in a critical size (2.3 mm in diameter) round defect created in the mouse skull. The BSA loaded pulsatile devices were used as vehicle controls. All animal procedures were performed following a protocol approved by the University of Michigan Institutional Animal Care and Use Committee. C57BL/6 mice were randomly divided into four groups. Animals were anaesthetized with isoflurane (2%) inhalation. The 2.3 mm diameter craniotomy defect centered on the parietal calvarial bone was created using a trephine. A blank nanofibrous scaffold was placed to fill in the defect and a delivery device (pulsatile PTH, continuous PTH, or BSA control device) was placed adjacent to the scaffold with the opening side facing the scaffold (see FIG. 24).
Rather, PTH was subcutaneously injected for 3 weeks (21 days) using a standard systemic administration dose (40 μg/kg/d). […]
Mouse tibiae from the different groups were examined using μCT to assess the potential systemic side effects of the local PTH releases. […] A region of 0.75 mm right below the growth plate was analyzed to quantify the trabecular bone volume.

Another data set has as its system mouse calvarial defect. The data set is described as follows: Mouse calvarial critical size defect with nanofibrous scaffold: μCT of new bone 8 weeks after implantation. Type of data set: in vivo, C57BL/6 mice. Conditions: compared to the control BSA group; μCT and histomorphometry. The procedure: as §2, with “24). […]” for “24).”
For the calvarial bone analysis, the skulls were scanned with a fixed global threshold of 20%. 3D reconstruction of the skull and quantitative analyses were performed. A 2.3 mm-round region of interest centered on the defect was determined and the bone volume (mm^3) (BV) and bone mineral density (BMD) in the area were measured using manufacturer's software (Scanco μCT 100).

For data set [2] the following is noted: in vivo; cited from earlier work.

As for PTH (1-34), the “serum P1NP level (bone formation marker)” value in data set [1] is listed as “significantly elevated”. Moreover, the “serum TRAP5b level (bone resorption marker)” value in the data set on TRAP5b is on record as “significantly elevated”. Further, the “tibia trabecular bone volume” value with mouse tibiae is “significantly increased”. In addition, the “bone growth in the nanofibrous scaffold” value with mouse calvarial defect was “significantly promoted”. For the same substance, in data set [2], the half-life was 8 min.
